Drawing on US11446287B2, “Compounds and methods for EP300 or CBP modulation and indications therefor” (Opna Immuno-Oncology SA, priority 2019, dated 2022), this text covers IC50 for eleven compounds.

In the experiment the target is T1, Recombinant human CBP containing the bromodomain (CBP-BD (1043-1159)) (Homo sapiens, UniProt Q92793).
T1 construct: Recombinant human CBP bromodomain (CBP-BD (1043-1159)); made in house; host or cells: E. coli BL21-CodonPlus (DE3), modified pET vector
As to the kind of experiment: CBP Alphascreen binding assay. As to conditions: read-out: CREBBP (CBP) IC50. The gist of the method:
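Buffer: 50 mM HEPES pH 7.5, 50 mM NaCl, 0.01% BSA, 0.01% Triton X-100, 2 mM DTT. The signal was normalised to plate controls and fitted with a four-parameter curve to give IC50.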
(In general: In Alpha technology, singlet oxygen from a donor bead excites a nearby acceptor bead.)

SMILES strings stand for the structures.

T1 sequence (Q92793 1081-1197): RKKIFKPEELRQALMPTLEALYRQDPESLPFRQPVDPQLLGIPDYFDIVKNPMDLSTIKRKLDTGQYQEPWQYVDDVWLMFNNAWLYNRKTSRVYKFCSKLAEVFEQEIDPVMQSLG

As usually defined, the IC50 is the concentration that inhibits the measured activity by half. Take `Cc1noc(C)c1-c1cnc2c(Cc3ccccn3)cn(-c3ccc(C(=O)O)cc3OC(F)(F)F)c2c1` [P-0159, 4-(6-(3,5-dimethylisoxazol-4-yl)-3-(pyridin-2-ylmethyl)-1H-pyrrolo[3,2-b]pyridin-1-yl)-3-(trifluoromethoxy)benzoic acid]: the concentration for half-maximal inhibition (IC50) fell in the range of 0.0001 to 1 µM. Under `Cc1noc(C)c1-c1cnc2c(-c3cnn(C)c3)c(C(F)(F)F)n([C@@H](C)c3ccccn3)c2c1` [P-0160, (S)-3,5-dimethyl-4-(3-(1-methyl-1H-pyrazol-4-yl)-1-(1-(pyridin-2-yl)ethyl)-2-(trifluoromethyl)-1H-pyrrolo[3,2-b]pyridin-6-yl)isoxazole] stands 0.0001 to 1 µM.

As for `Cc1noc(C)c1-c1cnc2c(-c3cccc(CC(=O)O)c3)c(C(F)(F)F)n([C@@H](C)c3ccccn3)c2c1` [P-0161, (S)-2-(3-(6-(3,5-dimethylisoxazol-4-yl)-1-(1-(pyridin-2-yl)ethyl)-2-(trifluoromethyl)-1H-pyrrolo[3,2-b]pyridin-3-yl)phenyl)acetic acid], the concentration for half-maximal inhibition (IC50) was 0.0001 to 1 µM. For `Cc1noc(C)c1-c1cnc2c(-c3cccc(C(=O)O)c3)c(C(F)(F)F)n([C@@H](C)c3ccccn3)c2c1` [P-0162, (S)-3-(6-(3,5-dimethylisoxazol-4-yl)-1-(1-(pyridin-2-yl)ethyl)-2-(trifluoromethyl)-1H-pyrrolo[3,2-b]pyridin-3-yl)benzoic acid] the value was 0.0001 to 1 µM; for `Cc1noc(C)c1-c1cnc2c(C(O)(C3CC3)C3CC3)cn(-c3ccc(C(=O)O)cc3OC(F)(F)F)c2c1` [P-0163, 4-(3-(dicyclopropyl(hydroxy)methyl)-6-(3,5-dimethylisoxazol-4-yl)-1H-pyrrolo[3,2-b]pyridin-1-yl)-3-(trifluoromethoxy)benzoic acid], 0.0001 to 1 µM; for `Cc1noc(C)c1-c1cnc2c(-c3cc(C(=O)O)ccc3Cl)cn(C(C)(c3ccccn3)c3ccccn3)c2c1` [P-0164, 4-chloro-3-(1-(1,1-di(pyridin-2-yl)ethyl)-6-(3,5-dimethylisoxazol-4-yl)-1H-pyrrolo[3,2-b]pyridin-3-yl)benzoic acid], 0.0001 to 1 µM.

Take `CCOc1cc(C(=O)O)cc(OCC)c1-n1cc(C(O)(C2CC2)C2CC2)c2ncc(-c3c(C)noc3C)cc21` [P-0165, 4-(3-(dicyclopropyl(hydroxy)methyl)-6-(3,5-dimethylisoxazol-4-yl)-1H-pyrrolo[3,2-b]pyridin-1-yl)-3,5-diethoxybenzoic acid]: the IC50 was 0.0001 to 1 µM.

Regarding `Cc1noc(C)c1-c1cnc2c(-c3cc(C(=O)O)ccc3C#N)cn(C(C)(c3ccccn3)c3ccccn3)c2c1` [P-0166, 4-cyano-3-(1-(1,1-di(pyridin-2-yl)ethyl)-6-(3,5-dimethylisoxazol-4-yl)-1H-pyrrolo[3,2-b]pyridin-3-yl)benzoic acid], the IC50 was 0.0001 to 1 µM.

For the compound `C#Cc1ccccc1-c1cn(C(C)(c2ccccn2)c2ccccn2)c2cc(-c3c(C)noc3C)cnc12` [P-0167, 4-(1-(1,1-di(pyridin-2-yl)ethyl)-3-(2-ethynylphenyl)-1H-pyrrolo[3,2-b]pyridin-6-yl)-3,5-dimethylisoxazole], the IC50 fell in the range of 0.0001 to 1 µM. For the compound `CCOc1cc(C(=O)O)cc(OCC)c1-n1cc(-c2ccccc2)c2ncc(-c3c(C)noc3C)cc21` [P-0168, 4-(6-(3,5-dimethylisoxazol-4-yl)-3-phenyl-1H-pyrrolo[3,2-b]pyridin-1-yl)-3,5-diethoxybenzoic acid], the IC50 fell in the range of 0.0001 to 1 µM. As for `Cc1noc(C)c1-c1cnc2c(-c3ccccc3C#N)cn(C(C)(c3ccccn3)c3ccccn3)c2c1` [P-0169, 2-(1-(1,1-di(pyridin-2-yl)ethyl)-6-(3,5-dimethylisoxazol-4-yl)-1H-pyrrolo[3,2-b]pyridin-3-yl)benzonitrile], the IC50 fell in the range of 0.0001 to 1 µM.
